Reference: US11083725B2 (priority 2014, dated 2021)

Test system: NHBE cells
Experiment: Biolog metabolic array: substrate use by NHBE cells with or without CA09 infection
Assay type: cell-based, human
Conditions: for Substrate use, 590 nm absorbance normalized to zero hour, 1 hr: Biolog PMM2, 1 hr; for Substrate use, 590 nm absorbance normalized to zero hour, 5 hr: Biolog PMM2, 5 hr; for Substrate use, 590 nm absorbance normalized to zero hour, 7 hr: Biolog PMM2, 7 hr
[1] = Control (uninfected) NHBE cells
[2] = Virus (CA09-infected, MOI 1) NHBE cells
[3] = Virus: CA09-infected NHBE cells, MOI 1, Biolog PMM2
[4] = Virus (CA09-infected NHBE cells, MOI 1)
[5] = Virus (CA09, MOI 1) infected NHBE cells

O=C(CO)[C@@H](O)[C@@H](O)[C@H](O)CO [D-Tagatose]
590 nm absorbance normalized to zero hour (substrate use), 1 hr [1]: 1.07
590 nm absorbance normalized to zero hour (substrate use), 2 hr [1]: 1.01
590 nm absorbance normalized to zero hour (substrate use), 3 hr [1]: 0.88
590 nm absorbance normalized to zero hour (substrate use), 4 hr [1]: 0.28
590 nm absorbance normalized to zero hour (substrate use), 6 hr [1]: 0.49
590 nm absorbance normalized to zero hour (substrate use), 8 hr [1]: 0.34
590 nm absorbance normalized to zero hour (substrate use), 9 hr [1]: 0.36
590 nm absorbance normalized to zero hour (substrate use), 10 hr [1]: 0.37
590 nm absorbance normalized to zero hour (substrate use), 11 hr [1]: 0.39
Substrate use, 590 nm absorbance normalized to zero hour, 1 hr [1]: 1.07
Substrate use, 590 nm absorbance normalized to zero hour, 5 hr [1]: 0.29
Substrate use, 590 nm absorbance normalized to zero hour, 7 hr [1]: 0.32
590 nm absorbance normalized to zero hour (substrate use), 1 hr [2]: 0.17
590 nm absorbance normalized to zero hour (substrate use), 2 hr [2]: 0.24
590 nm absorbance normalized to zero hour (substrate use), 3 hr [2]: 0.28
590 nm absorbance normalized to zero hour (substrate use), 4 hr [2]: 0.30
590 nm absorbance normalized to zero hour (substrate use), 5 hr [2]: 0.36
590 nm absorbance normalized to zero hour (substrate use), 6 hr [2]: 0.39
590 nm absorbance normalized to zero hour (substrate use), 7 hr [2]: 0.42
590 nm absorbance normalized to zero hour (substrate use), 8 hr [2]: 0.44
590 nm absorbance normalized to zero hour (substrate use), 9 hr [2]: 0.49
590 nm absorbance normalized to zero hour (substrate use), 10 hr [2]: 0.51
590 nm absorbance normalized to zero hour (substrate use), 1 hr [3]: 0.17
590 nm absorbance normalized to zero hour (substrate use), 2 hr [3]: 0.24
590 nm absorbance normalized to zero hour (substrate use), 3 hr [3]: 0.28
590 nm absorbance normalized to zero hour (substrate use), 4 hr [3]: 0.30
590 nm absorbance normalized to zero hour (substrate use), 5 hr [3]: 0.36
590 nm absorbance normalized to zero hour (substrate use), 6 hr [3]: 0.39
590 nm absorbance normalized to zero hour (substrate use), 7 hr [3]: 0.42
590 nm absorbance normalized to zero hour (substrate use), 8 hr [3]: 0.44
590 nm absorbance normalized to zero hour (substrate use), 9 hr [3]: 0.49
590 nm absorbance normalized to zero hour (substrate use), 10 hr [3]: 0.51
590 nm absorbance normalized to zero hour (substrate use), 11 hr [3]: 0.48

OC[C@H]1O[C@H](O[C@H]2O[C@H](CO)[C@@H](O)[C@H](O)[C@H]2O)[C@H](O)[C@@H](O)[C@@H]1O [D-Trehalose]
590 nm absorbance normalized to zero hour (substrate use), 0 hr [1]: 1.00
590 nm absorbance normalized to zero hour (substrate use), 1 hr [1]: 1.68
590 nm absorbance normalized to zero hour (substrate use), 2 hr [1]: 2.24
590 nm absorbance normalized to zero hour (substrate use), 3 hr [1]: 2.70
590 nm absorbance normalized to zero hour (substrate use), 4 hr [1]: 2.88
590 nm absorbance normalized to zero hour (substrate use), 6 hr [1]: 3.69
590 nm absorbance normalized to zero hour (substrate use), 8 hr [1]: 4.74
590 nm absorbance normalized to zero hour (substrate use), 9 hr [1]: 5.11
590 nm absorbance normalized to zero hour (substrate use), 10 hr [1]: 4.09
590 nm absorbance normalized to zero hour (substrate use), 11 hr [1]: 4.60
Substrate use, 590 nm absorbance normalized to zero hour, 0 hr (Control (uninfected) NHBE cells, Biolog PMM2, 0 hr): 1.00
Substrate use, 590 nm absorbance normalized to zero hour, 1 hr [1]: 1.68
Substrate use, 590 nm absorbance normalized to zero hour, 5 hr [1]: 3.48
Substrate use, 590 nm absorbance normalized to zero hour, 7 hr [1]: 4.20
590 nm absorbance normalized to zero hour (substrate use), 0 hr [2]: 1.00
590 nm absorbance normalized to zero hour (substrate use), 1 hr [2]: 1.66
590 nm absorbance normalized to zero hour (substrate use), 2 hr [2]: 2.04
590 nm absorbance normalized to zero hour (substrate use), 3 hr [2]: 2.20
590 nm absorbance normalized to zero hour (substrate use), 4 hr [2]: 2.27
590 nm absorbance normalized to zero hour (substrate use), 5 hr [2]: 2.52
590 nm absorbance normalized to zero hour (substrate use), 6 hr [2]: 2.66
590 nm absorbance normalized to zero hour (substrate use), 7 hr [2]: 2.79
590 nm absorbance normalized to zero hour (substrate use), 8 hr [2]: 2.93
590 nm absorbance normalized to zero hour (substrate use), 9 hr [2]: 3.11
590 nm absorbance normalized to zero hour (substrate use), 10 hr [2]: 3.25
590 nm absorbance normalized to zero hour (substrate use), 11 hr [2]: 3.07
590 nm absorbance normalized to zero hour (substrate use), 0 hr [3]: 1.00
590 nm absorbance normalized to zero hour (substrate use), 1 hr [3]: 1.66
590 nm absorbance normalized to zero hour (substrate use), 2 hr [3]: 2.04
590 nm absorbance normalized to zero hour (substrate use), 3 hr [3]: 2.20
590 nm absorbance normalized to zero hour (substrate use), 4 hr [3]: 2.27
590 nm absorbance normalized to zero hour (substrate use), 5 hr [3]: 2.52
590 nm absorbance normalized to zero hour (substrate use), 6 hr [3]: 2.66
590 nm absorbance normalized to zero hour (substrate use), 7 hr [3]: 2.79
590 nm absorbance normalized to zero hour (substrate use), 8 hr [3]: 2.93
590 nm absorbance normalized to zero hour (substrate use), 9 hr [3]: 3.11
590 nm absorbance normalized to zero hour (substrate use), 10 hr [3]: 3.25
590 nm absorbance normalized to zero hour (substrate use), 11 hr [3]: 3.07

OC[C@H]1O[C@@H](OC[C@H]2OC(O)[C@H](O)[C@@H](O)[C@@H]2O)[C@H](O)[C@@H](O)[C@@H]1O (stereo partly shown) [Gentio-biose]
590 nm absorbance normalized to zero hour (substrate use), 1 hr [1]: 1.71
590 nm absorbance normalized to zero hour (substrate use), 2 hr [1]: 2.34
590 nm absorbance normalized to zero hour (substrate use), 3 hr [1]: 2.83
590 nm absorbance normalized to zero hour (substrate use), 4 hr [1]: 3.01
590 nm absorbance normalized to zero hour (substrate use), 6 hr [1]: 4.46
590 nm absorbance normalized to zero hour (substrate use), 8 hr [1]: 4.57
590 nm absorbance normalized to zero hour (substrate use), 9 hr [1]: 5.20
590 nm absorbance normalized to zero hour (substrate use), 10 hr [1]: 5.59
590 nm absorbance normalized to zero hour (substrate use), 11 hr [1]: 5.94
Substrate use, 590 nm absorbance normalized to zero hour, 1 hr [1]: 1.71
Substrate use, 590 nm absorbance normalized to zero hour, 5 hr [1]: 3.72
Substrate use, 590 nm absorbance normalized to zero hour, 7 hr [1]: 4.35
590 nm absorbance normalized to zero hour (substrate use), 1 hr [4]: 1.23
590 nm absorbance normalized to zero hour (substrate use), 2 hr [4]: 1.38
590 nm absorbance normalized to zero hour (substrate use), 3 hr [4]: 1.44
590 nm absorbance normalized to zero hour (substrate use), 4 hr [4]: 1.47
590 nm absorbance normalized to zero hour (substrate use), 5 hr [4]: 1.55
590 nm absorbance normalized to zero hour (substrate use), 6 hr [4]: 1.62
590 nm absorbance normalized to zero hour (substrate use), 7 hr [4]: 1.66
590 nm absorbance normalized to zero hour (substrate use), 8 hr [4]: 1.72
590 nm absorbance normalized to zero hour (substrate use), 9 hr [4]: 1.79
590 nm absorbance normalized to zero hour (substrate use), 10 hr [4]: 1.85
590 nm absorbance normalized to zero hour (substrate use), 11 hr [4]: 1.99
590 nm absorbance normalized to zero hour (substrate use), 1 hr [3]: 1.23
590 nm absorbance normalized to zero hour (substrate use), 2 hr [3]: 1.38
590 nm absorbance normalized to zero hour (substrate use), 3 hr [3]: 1.44
590 nm absorbance normalized to zero hour (substrate use), 4 hr [3]: 1.47
590 nm absorbance normalized to zero hour (substrate use), 5 hr [3]: 1.55
590 nm absorbance normalized to zero hour (substrate use), 6 hr [3]: 1.62
590 nm absorbance normalized to zero hour (substrate use), 7 hr [3]: 1.66
590 nm absorbance normalized to zero hour (substrate use), 8 hr [3]: 1.72
590 nm absorbance normalized to zero hour (substrate use), 9 hr [3]: 1.79
590 nm absorbance normalized to zero hour (substrate use), 10 hr [3]: 1.85
590 nm absorbance normalized to zero hour (substrate use), 11 hr [3]: 1.99

OCC(O)CO [Glycerol]
590 nm absorbance normalized to zero hour (substrate use), 1 hr [1]: 1.36
590 nm absorbance normalized to zero hour (substrate use), 2 hr [1]: 1.42
590 nm absorbance normalized to zero hour (substrate use), 3 hr [1]: 1.19
590 nm absorbance normalized to zero hour (substrate use), 4 hr [1]: 1.18
590 nm absorbance normalized to zero hour (substrate use), 6 hr [1]: 0.68
590 nm absorbance normalized to zero hour (substrate use), 8 hr [1]: 1.04
590 nm absorbance normalized to zero hour (substrate use), 9 hr [1]: 1.08
590 nm absorbance normalized to zero hour (substrate use), 10 hr [1]: 1.04
590 nm absorbance normalized to zero hour (substrate use), 11 hr [1]: 1.08
Substrate use, 590 nm absorbance normalized to zero hour, 1 hr [1]: 1.36
Substrate use, 590 nm absorbance normalized to zero hour, 5 hr [1]: 1.27
Substrate use, 590 nm absorbance normalized to zero hour, 7 hr [1]: 1.06
Substrate use, 590 nm absorbance normalized to zero hour, 11 hr (Control (uninfected) NHBE cells, Biolog PMM2, 11 hr): 1.04
Substrate use, 590 nm absorbance normalized to zero hour, 1 hr [5]: 1.04
Substrate use, 590 nm absorbance normalized to zero hour, 2 hr (Virus (CA09, MOI 1) infected NHBE cells, Biolog PMM2, 2 hr): 1.04
Substrate use, 590 nm absorbance normalized to zero hour, 3 hr (Virus (CA09, MOI 1) infected NHBE cells, Biolog PMM2, 3 hr): 1.04
Substrate use, 590 nm absorbance normalized to zero hour, 4 hr (Virus (CA09, MOI 1) infected NHBE cells, Biolog PMM2, 4 hr): 1.04
Substrate use, 590 nm absorbance normalized to zero hour, 5 hr [5]: 3.55
Substrate use, 590 nm absorbance normalized to zero hour, 7 hr [5]: 3.91
590 nm absorbance normalized to zero hour (substrate use), 1 hr [2]: 2.05
590 nm absorbance normalized to zero hour (substrate use), 2 hr [2]: 2.67
590 nm absorbance normalized to zero hour (substrate use), 3 hr [2]: 3.09
590 nm absorbance normalized to zero hour (substrate use), 4 hr [2]: 3.24
590 nm absorbance normalized to zero hour (substrate use), 6 hr [2]: 3.71
590 nm absorbance normalized to zero hour (substrate use), 8 hr [2]: 4.11
590 nm absorbance normalized to zero hour (substrate use), 9 hr [2]: 4.51
590 nm absorbance normalized to zero hour (substrate use), 10 hr [2]: 4.63
590 nm absorbance normalized to zero hour (substrate use), 11 hr [2]: 5.09
